Experiments:
[1] = tested on: SKOV3 cells; test: Clonogenic assay, SKOV3; type: cell-based; conditions: DB4 at 6 μM, 14 days
Protocol: Cells were plated for 24 hr, pre-treated with DB4 for 1 hr, and then treated with various concentrations of olaparib for 14 days. Colonies were stained and determined for clonogenic survival.
To further substantiate the effectiveness of DB4 and mitigate the issue of off-target effects with a higher concentration range of drugs used in the MTS cytotoxicity assay, clonogenic assays were carried out to determine the long-term survival of cells in response to treatments.
The assay was conducted as described previously (Lin Z P et al., 2014, Molecular Cancer Res, 12:381-393). Cells were plated at various densities in 6-well plates in triplicate. After 24 hr of incubation, cells were treated continuously with various concentrations of olaparib, DB4, or both drugs in combination. After 12-14 days, colonies were fixed/stained with crystal violet solution and counted to determine the percentage of survival using a GelDoc imaging system with QuantityOne software (Bio-Rad, Hercules, CA).

[2] = tested on: cNHEJ activity; test: NHEJ reporter assay in SKOV3-EJ5-GFP cells; type: cell-based; conditions: I-SceI-mediated DSBs
Description: Cells were transfected with the ISceI-expressing plasmid and then treated various concentrations of DB4 for 48 hr. Cells were harvested, stained with 7-AAD, and analyzed by flow cytometry for GFP-positive cells indicative of HR repair activity. […] Cells were transfected with the ISceI-expressing plasmid and treated with various concentrations of DB4. Cells were harvested, stained with 7-AAD, and stained, and analyzed by flow cytometry for GFP-positive cells indicative of NHEJ activity. Data are means±SD (N=3). *, p<0.05; **, p<0.01, compared with the 0 μM control of ISceI-transected cells. FIG. 7C depicts representative results of confocal imaging of olaparib-induced nuclear Rad51 foci in SKOV3 cells treated DB4. […] Cells were also scored for nuclei containing equal or more than 10 distinct Rad51 foci to determine the percentage of cells positive for Rad51 foci. […] Protein was assessed by western blot analysis for the levels of γH2AX, p-H1, cyclin A2, p-CDK1/2, and HSC70. […] The band density of γH2AX indicative of DSBs was quantified by densitometry. […]
SKOV3-DR-GFP cells were established as described previously (Lin Z P et al., 2014, Molecular Cancer Res, 12:381-393). […] Cells were then trypsinized, stained with 7-AAD, and analyzed for the percentage of GFP-positive and […] cells by flow cytometry using an LSR II flow cytometer (BD Biosciences) and FlowJo software (Tree Star; Ashland, OR). […]

[3] = cited from earlier work

Structure (SMILES)	clonogenic survival in the presence of olaparib [1]	cNHEJ activity [2]	half-life in plasma [3]
C=CCn1c(SCc2cccc(Cl)c2)nnc1C1CCN(Cc2nc3ccccc3s2)CC1 [DB4, 2-[(4-{4-allyl-5-[(3-chlorobenzyl)thio]-4H-1,2,4-triazol-3-yl}-1-piperidinyl)methyl]-1,3-benzothiazole]	effectively reduced the clonogenic survival	appeared to enhance the cNHEJ activity induced by I-SceI-mediated DSBs but the increase was not statistically significant	–
NC(=S)NN=Cc1ncccc1N [triapine, 3-aminopyridine-2-carboxaldehyde-thiosemicarbazone, reference compound]	–	–	about 2 hr

— patent US20240239786A1, “COMPOSITIONS AND METHODS FOR THE TREATMENT AND PREVENTION OF CANCER” (Yale University, priority 2021, published 2024)
